# Patent US20160151403A1, “SMALL MOLECULE MODULATORS OF P53 FAMILY SIGNALING” (The Trustees of the University of Pennsylvania, priority 2006, published 2016)
# Entries after “also recorded” stand apart in the source; their conditions may differ.
# Columns and labels:
# [1] = test system: DR5 and p21 in HCT116/p53(+/+) cells; assay: Western blot of p53 target genes DR5 and p21 in HCT116/p53(+/+) cells; assay type: cell-based, human; conditions: for expression of p53 targets DR5 and p21 proteins: parental HCT116 (p53+/+) cells, FIG. 2A
# Description: (§1) FIGS. 2A-2B show protein levels of p53 target genes p21 and DR5 were induced by selected compounds in HCT/p53(+/+) cells (A) or HCT/p53(−/−) cells (B). In A, doses of compounds (μM) are listed above each lane. Cells treated with compounds were harvested and lysed for SDS-PAGE and immunoblotted with p21 or DR5 antibodies. Ran was used as a protein loading control. Doses of compounds in B were as follows: 2 μM for #15, 12 μM for #1 and #23, 20 μM for #20 and #32, 100 μM for #33, 200 μM for #5, #8, #12, #16, #17, and #22, and 400 μM for #3. The dose for adriamycin was 0.2 μg/ml. Cells were incubated for 16 hours at 37° C. with the various drugs prior to cell harvest;
# (§2) Cells were collected and protein concentration was quantified by the Bio-Rad protein assay prior to SDS-PAGE. Proteins were transferred to a PVDF membrane (Immobilon-P, Millipore Corporation, Bedford, Mass.) by a semi-dry transfer apparatus (Bio-Rad Laboratories, Hercules, Calif.). The membranes with transferred proteins were blotted with 10% W/V non-fat dry milk and then incubated with the primary antibody and subsequently secondary antibodies, which were labelled by horseradish peroxidase, or infrared dyes (IR). Signals were visualized by either ECL (Amersham Pharmacia Biotech, England, UK) and exposed to an X-ray film, or scanned by the Odyssey Infared Imaging System (LI-COR Biosciences, Lincoln, Nebr.). Anti-p53, DO-1, was from Santa Cruz biotechnology, Inc. (Santa Cruz, Calif.), anti-p73 (AB-1) and anti-p21 (AB-1) were obtained from Calbiochem (San Diego, Calif.). Anti-ser20 of p53 Cell were obtained from Signaling Technology (Danvers, Mass.) and anti-DR5 antibody was obtained from Cayman Chemical (Ann Arbor, Mich.).
# (§3) The chemical library screening was directed at restoring “p53 responses” in p53-deficient cells. The small molecules identified by the cell-based screening procedure appeared to be able to restore p53 responses in p53-deficient colon tumors and to eliminate viable cells. Their function was further tested on wild-type p53-expressing and p53-knockout HCT116 colon adenocarcinoma cell lines. A number of candidate modulators of signaling by the p53 family appeared to induce expression of p53 target genes such as p21 or DR5(13) either with or without stabilizing p53 protein in HCT116 cells (FIG. 2A).
# [2] = test system: p53 protein expression in HCT116 cells; assay: Western blot of p53 protein in parental HCT116 cells; assay type: cell-based, human; conditions: FIG. 2A
# Description: as §2, §3
# [3] = test system: p73 in HCT116/p53(−/−) cells; assay: Western blot of p73 protein in HCT116/p53(-/-) cells; assay type: cell-based, human; conditions: FIG. 3F
# Description: (§4) FIGS. 3A-3F show: Structures (A) of isolated compounds and summary of their effects on the p53 family and transcriptional targets (B). Cell cycle profiles of HCT/p53(+/+) and HCT/p53(−/−) in response to treatment by selected compounds (C-E). The dose of #17 was 200 μM and for #23 it was 10 μM. F, p73 protein levels were elevated in HCT116/p53(−/−) cells in response to treatment by selected compounds at various concentrations as indicated;
# as §2
# The questioned whether the p53 family member p73 is involved in the p53-responsive transcriptional activity induced by the compounds identified was then tested. p63, the other p53 family member, was not tested, because the TA form of p63 is rarely expressed in malignant and normal tissues except for germ cells of the ovary and testis.
# [4] = test system: DR5 and p21 in HCT116/p53(−/−) cells; assay: Western blot of p53 target genes DR5 and p21 in HCT116/p53(-/-) cells; assay type: cell-based, human; conditions: for DR5 and p21 expression (p53 target genes): p53-null HCT116 cells, 16 hours, doses per compound in FIG. 2B
# Description: as §1, §2
# A number of selected compounds was further tested on HCT116/p53^−/− cells to verify the possibility of induction of p53 target gene expression in the absence of p53. […] The importance of this observation is in establishing that it is possible to identify small molecules with the potential to induce p53 target gene expression in p53-deficient cells.
# HCT116/p53^+/+ cells = assay: Flow cytometry cell cycle profile, HCT116/p53(+/+); assay type: cell-based, human; conditions: #17 200 μM, #23 10 μM
# Description: as §4
# (§5) Adherent cells in a 6-well plate were trypsinized and collected in 15 ml centrifuge tubes to which were added the originally floating cells. The collected cells were ethanol-fixed and stained with propidium iodide (Sigma, St. Louis, Mo.). The DNA content of the stained cells was then measured using an Epics Elite flow cytometer (Beckman-Coulter, Fullerton, Calif.).
# (§6) The ability of selected compounds from the chemical library screen to induce apoptosis of human colon tumor cells and the dependence of their effects on endogenous p53 status was further evaluated.
# [5] = Toxicity in xenograft-bearing mice; assay type: in vivo; conditions: at higher doses (above MTD)
# Description: (§7) Compounds #1, #14, #17, and #23 were tested in colon-tumor xenograft-bearing mice in order to evaluate their toxicities and potential anti-tumor effects (FIG. 4). […] The initial doses were chosen below maximal tolerated doses based on the NCI DTP toxicology databases for chemical compound testing in vivo so that mice would survive drug administration and allow subsequent evaluation of anti-tumor effects. p53-null HCT116 xenografts were first tested to document anti-tumor effects in p53-deficient tumors and an experiment to simulate therapy of established tumors was designed. A total of 2×10^6 p53-null HCT116 cells were implanted on opposite flanks subcutaneously in each of 6 nude mice in each group. When tumor masses grew to about 3-5 mm in diameter, drugs were administered intra-peritoneally (#1: 100 mg/kg; #14: 50 mg/kg; #23: 10 mg/kg), and on the next day additional groups received intravenous TRAIL (15) (100 μg/mice via the tail vein). Tumor weights were determined at 7 days later. […] Nonetheless in the future it may be possible to modify the structure of #17 or identify doses where synergistic interactions with TRAIL may be observed.
# [6] = test system: HCT116/p53(−/−) xenografts; assay: In vivo anti-tumor assay, HCT116/p53(-/-) xenografts in Balb/c nude mice; conditions: doses just below the MTD
# Description: Balb/c nude mice were inoculated subcutaneously with 2 million HCT116/p53(−/−) cells in Matrigel on each flank. 6 mice were used in each group, in each of the two experiments. When the tumor mass reached about 3-5 mm, mice were treated with the compounds alone or following a single dose of TRAIL at 100 μg/mouse in experiment 1. At 7 days after treatment, mice were sacrificed and the tumor masses were weighted. The doses used were 100 mg/kg for #1, 50 mg/kg for #14, and 10 mg/kg for #23;
# Balb/c nude mice (Charles River Laboratories, Wilmington, Mass.) were inoculated subcutaneously with 2 million HCT116/p53(−/−) cells in an equal volume of Matrigel. When tumor masses reached about 3-5 mm in diameter, mice were treated with the compounds alone by intraperitoneal injection or following a single intravenous dose of TRAIL at 100 μg/mouse. At 7 days after treatment, mice were sacrificed and the tumor masses were weighed. DLD1/PG13 cells were inoculated subcutaneously with 5 million cells. At 24 hours later mice were treated with selected compounds, and subsequently bioluminescence imaging was carried out after 16 hours as previously described [Wang, W. & El-Deiry, W. S. (2003) Cancer Biol Ther 2, 196-202].
# as §7
# [7] = test system: HCT116/p53(+/+)/PG-13 cells; assay: p53 transcriptional activity, PG13 reporter, HCT116/p53(+/+)/PG-13 cells; assay type: cell-based, human; conditions: 16 h, bioluminescence
# Description: (§8) Cells were treated by the indicated compounds at progressive 1:2 serial dilutions for 16 h, and the luciferase activities were detected by bioluminescence imaging. Fold induction was calculated by comparing to the nontreated cells;
# γH2AX = γH2AX test (DNA damage signaling); assay type: cell-based; conditions: after treatment
# HCT116/p53^−/− cells = assay: Flow cytometry cell cycle profile, HCT116/p53(-/-); assay type: cell-based, human
# Description: as §4, §5, §6
# [8] = test system: HCT116/p53(−/−)/PG13 cells; assay: p53 transcriptional activity, PG13 reporter, HCT116/p53(-/-)/PG13 cells; assay type: cell-based, human; conditions: p53-null HCT116, 16 h, bioluminescence
# Description: as §8
SMILES,expression of p53 targets DR5 and p21 proteins [1],p53 protein expression [2],p73 protein expression [3],DR5 and p21 expression (p53 target genes) [4],further results
Cc1ccc(CCCC(=O)O)cc1C [#3],increase p53 target gene expression,slight or no significant effect,,,
O=C(O)/C=C\C(=O)Nc1ccc2c(c1)-c1ccccc1C2 [#5],increase p53 target gene expression,slight or no significant effect,,,
O=C(O)CCC(=O)c1ccc2sc3ccccc3c2c1 [#8],,,induce p73 protein expression,increase DR5 and p21 expression,
COC1=C(C)C(=O)c2c(c(COC(N)=O)c3n2CC2C3N2C)C1=O (stereo not shown) [#11],more modest,increased p53 expression,,,
O=C(O)c1ccccc1-c1ccccc1C(=O)Nc1ccc2c(c1)[nH]c(=O)c1ccccc12 [#12],increase p53 target gene expression,slight or no significant effect,induce p73 protein expression,,
Cc1c2ccccc2c(CSC(=N)N)c2ccccc12.Cl [#15],more modest,increased p53 expression; also recorded: significantly increased p53 protein levels,,,
CC(C)=CCNc1ncnc2c1c(C#N)cn2C1OC(CO)C(O)C1O (stereo not shown) [#16],increase p53 target gene expression,slight or no significant effect,induce p73 protein expression,,
CN(C)CCCn1c2ccccc2c2cnccc21 [#17],increase p53 target gene expression,slight or no significant effect; also recorded: modestly induced p53 levels,did not increase p73 expression,increasing expression of the p53 target genes DR5 and p21; also recorded: strongly induce p53 target gene expression,"sub-G1 peak (apoptosis) (HCT116/p53^+/+ cells): induced a sub-G1 peak characteristic of apoptosis; toxicity to mice [5]: toxic to mice; anti-tumor effect on established xenograft [6]: no apparent in vivo anti-tumor effect; DR5 levels ([1]; HCT116/p53^+/+ cells): highest; p53 transcriptional activity [7]: highest; γH2AX (γH2AX): not; sub-G1 peak (apoptosis) (HCT116/p53^−/− cells; HCT116/p53^−/−, #17 200 μM, #23 10 μM): induced a sub-G1 peak characteristic of apoptosis; S-phase population on apoptosis induction (HCT116/p53^−/− cells; p53-null HCT116 cells, compared with wild-type p53-expressing HCT116): without suppressing the S-phase population; DR5 expression ([4]; HCT116/p53^−/− cells): highest; p53 transcriptional activity (reporter assay response) [8]: highest; also recorded: stronger responses in the reporter assays"
O=c1[nH]c(SCc2ccccc2[N+](=O)[O-])nc2nc[nH]c12 [#22],,,,increase DR5 and p21 expression,
C[C@]12CC[C@H](O)C[C@H]1CC[C@@H]1[C@@H]2CC[C@]2(C)[C@@H](C3=CC(=O)OC3)[C@@H](O)C[C@]12O [#32],,,,increase DR5 and p21 expression,
CC[C@@]1(O)C(=O)OCc2c1cc1n(c2=O)Cc2cc3c(NC(=O)CN)cccc3nc2-1.Cl [#33],increased expression of DR5 and p21 proteins,increase p53 expression; also recorded: significantly increased p53 protein levels,,,
"COc1cccc2c1C(=O)c1c(O)c3c(c(O)c1C2=O)C[C@@](O)(C(=O)CO)C[C@@H]3O[C@H]1C[C@H](N)[C@H](O)[C@H](C)O1 [adriamycin, doxorubicin, reference compound]",,,only increased p73 slightly,,DR5 expression ([4]; HCT116/p53^−/− cells): no obvious effect; p21 expression ([4]; HCT116/p53^−/− cells): little effect
